According to PMC7057177 (Journal of medicinal chemistry, 2019):
One block for each compound: values may come before it.

Assays:
menin protein = molecular target: T1, menin protein (Homo sapiens, UniProt O00255); assay: Fluorescence polarization; settings: for Times more potent than MIV-6 in binding to menin: FP binding assay
T1 sequence (O00255 1-610): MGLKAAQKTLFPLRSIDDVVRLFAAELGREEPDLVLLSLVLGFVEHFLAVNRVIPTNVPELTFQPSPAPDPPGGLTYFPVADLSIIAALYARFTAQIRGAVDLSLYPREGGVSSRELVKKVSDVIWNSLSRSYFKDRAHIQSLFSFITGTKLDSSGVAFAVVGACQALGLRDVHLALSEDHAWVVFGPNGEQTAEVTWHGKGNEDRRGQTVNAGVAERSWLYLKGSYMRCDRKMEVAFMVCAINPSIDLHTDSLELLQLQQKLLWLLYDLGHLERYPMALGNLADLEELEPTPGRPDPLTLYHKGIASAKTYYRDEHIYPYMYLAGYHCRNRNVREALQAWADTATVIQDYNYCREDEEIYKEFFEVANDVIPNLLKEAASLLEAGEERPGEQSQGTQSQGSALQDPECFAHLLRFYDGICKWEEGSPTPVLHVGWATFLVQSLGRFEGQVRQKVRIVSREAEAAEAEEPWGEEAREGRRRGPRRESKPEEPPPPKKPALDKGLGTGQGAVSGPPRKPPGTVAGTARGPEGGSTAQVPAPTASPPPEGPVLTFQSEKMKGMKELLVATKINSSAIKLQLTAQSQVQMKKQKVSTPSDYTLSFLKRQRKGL

MV4;11 cell line = assay: Cell growth inhibition assay; format: cell-based, human
Solubility comparison = format: physicochemical; settings: compared with 20

Structure (SMILES): N#Cc1ccc(N2CCC(N3CCC(C4(C5CCCC5)NCCc5ccccc54)CC3)CC2)cc1 (stereo not drawn) [Compound 9, 4-(4-(1-Cyclopentyl-1,2,3,4-tetrahydroisoquinolin-1-yl)-[1,4'-bipiperidin]-1'-yl)benzonitrile]
Times less potent than 6 in binding to menin (menin protein): approximately 10 times

Structure (SMILES): N#Cc1ccc(OCCCN2CCC(C3(C4CCCC4)NCCc4ccccc43)CC2)cc1 (stereo not drawn) [Compound 6, 4-(3-(4-(1-Cyclopentyl-1,2,3,4-tetrahydroisoquinolin-1-yl)piperidin-1-yl)propoxy)-benzonitrile]
Times more potent than MIV-6 in binding to menin (menin protein): 2-3 times

Structure (SMILES): CC(C)S(=O)(=O)c1ccc(N2CC(CN3CCC(C4(C5CCCC5)NCCc5ccccc54)CC3)C2)cc1 (stereo not drawn) [Compound 15, 1-Cyclopentyl-1-(1-((1-(4-(isopropylsulfonyl)phenyl)azetidin-3-yl)methyl)piperidin-4-yl)-1,2,3,4-tetrahydroisoquinoline]
Times less potent than 14 in binding to menin (menin protein): 2 times
Times more potent than 13 in binding to menin (menin protein): 2 times

Structure (SMILES): CS(=O)(=O)c1ccc(N2CC(CN3CCC(C4(C5CCCC5)NCCc5ccccc54)CC3)C2)cc1 (stereo not drawn) [Compound 13, 1-Cyclopentyl-1-(1-((1-(4-(methylsulfonyl)phenyl)azetidin-3-yl)methyl)piperidin-4-yl)-1,2,3,4-tetrahydroisoquinoline]
Times less potent than 12 in binding to menin (menin protein): 4 times

Structure (SMILES): N#Cc1ccc(N2CC(CN3CCC(C4(C5CCCC5)NCCc5ccccc54)CC3)C2)cc1 (stereo not drawn) [Compound 12, 4-(3-((4-(1-Cyclopentyl-1,2,3,4-tetrahydroisoquinolin-1-yl)piperidin-1-yl)methyl)azetidin-1-yl)benzonitrile]
Times more potent than 6 in binding to menin (menin protein): 2 times
Times more potent than MIV-6 in binding to menin (menin protein): 5 times

Structure (SMILES): CNC(=O)O[C@H]1CCC[C@@H]1[C@]1(C2CCN(CC3CN(c4ccc(S(=O)(=O)c5ccncc5)cc4)C3)CC2)CN(C)Cc2ccccc21 (mixture of isomers) [Compound 42, rac-(1S,2R)-2-((S)-2-Methyl-4-(1-((1-(4-(pyridin-4-ylsulfonyl)phenyl)azetidin-3-yl)methyl)piperidin-4-yl)-1,2,3,4-tetrahydroisoquinolin-4-yl)cyclopentyl methylcarbamate]
Times more potent than MIV-6 in cell growth inhibition (MV4;11 cell line; MV4;11 (M-89: MV4;11 and MOLM-13)): > 100 times

Structure (SMILES): N#Cc1ccc(N2CCCC(CN3CCC(C4(C5CCCC5)NCCc5ccccc54)CC3)C2)cc1 (stereo not drawn) [Compound 10, 4-(3-((4-(1-Cyclopentyl-1,2,3,4-tetrahydroisoquinolin-1-yl)piperidin-1-yl)methyl)piperidin-1-yl)benzonitrile]
Times less potent than 6 in binding to menin (menin protein): ~100 times

Further lines, with some results ahead:

Times more potent than 21 in binding to menin (menin protein): 2-3 times
Structure (SMILES): O=S(=O)(c1ccncc1)c1ccc(N2CC(CN3CCC(C4(C5CCCC5)CNCc5ccccc54)CC3)C2)cc1 (stereo not drawn) [Compound 22, 4-Cyclopentyl-4-(1-((1-(4-(pyridin-4-ylsulfonyl)phenyl)azetidin-3-yl)methyl)piperidin-4-yl)-1,2,3,4-tetrahydroisoquinoline]

IC50 (MV4;11 cell line; Homo sapiens, MV4-11, read-out: IC50 cell growth inhibition MV4;11): 400 to 1000 nM
Structure (SMILES): CN1Cc2ccccc2C(C2CCCC2)(C2CCN(CC3CN(c4ccc(S(=O)(=O)c5ccncc5)cc4)C3)CC2)C1 (stereo not drawn) [Compound 23, 4-Cyclopentyl-2-methyl-4-(1-((1-(4-(pyridin-4-ylsulfonyl)phenyl)azetidin-3-yl)methyl)piperidin-4-yl)-1,2,3,4-tetrahydroisoquinoline]

Fold loss in binding affinity to menin relative to 37 (menin protein): 30 fold
Structure (SMILES): CCCC(=O)O[C@H]1CCC[C@@H]1[C@](C#N)(c1ccccc1)C1CCN(CC2CN(c3ccc(C#N)cc3)C2)CC1 (mixture of isomers) [Compound 38, rac-(1S,2R)-2-((S)-Cyano(1-((1-(4-cyanophenyl)azetidin-3-yl)methyl)piperidin-4-yl)-(phenyl)methyl)cyclopentyl butyrate]

Relative solubility (Solubility comparison): more soluble than 20
Structure (SMILES): O=S(=O)(c1ccncc1)c1ccc(N2CC(CN3CCC(C4(C5CCCC5)NCCc5ccccc54)CC3)C2)cc1 (stereo not drawn) [Compound 21, 1-Cyclopentyl-1-(1-((1-(4-(pyridin-4-ylsulfonyl)phenyl)azetidin-3-yl)methyl)piperidin-4-yl)-1,2,3,4-tetrahydroisoquinoline]

Times more potent than 31 in binding to menin (menin protein): > 100 times
Structure (SMILES): CNC(=O)O[C@H]1CCC[C@@H]1[C@](C#N)(c1ccccc1)C1CCN(CC2CN(c3ccc(C#N)cc3)C2)CC1 (mixture of isomers) [Compound 39, rac-(1S,2R)-2-((S)-Cyano(1-((1-(4-cyanophenyl)azetidin-3-yl)methyl)piperidin-4-yl)-(phenyl)methyl)cyclopentyl methylcarbamate]
Factor of enhancement of cellular activity in MV4;11 relative to 31 (MV4;11 cell line): > 50

Times more potent than 15 in binding to menin (menin protein): 2-3 times
Structure (SMILES): O=S(=O)(c1ccc(N2CC(CN3CCC(C4(C5CCCC5)NCCc5ccccc54)CC3)C2)cc1)C1CC1 (stereo not drawn) [Compound 16, 1-Cyclopentyl-1-(1-((1-(4-(cyclopropylsulfonyl)phenyl)azetidin-3-yl)methyl)piperidin-4-yl)-1,2,3,4-tetrahydroisoquinoline]

Times more potent than 31 in binding to menin (menin protein): 80 times
Structure (SMILES): CC(=O)O[C@H]1CCC[C@@H]1[C@](C#N)(c1ccccc1)C1CCN(CC2CN(c3ccc(C#N)cc3)C2)CC1 (mixture of isomers) [Compound 35, rac-(1S,2R)-2-((S)-Cyano(1-((1-(4-cyanophenyl)azetidin-3-yl)methyl)piperidin-4-yl)(phenyl)methyl)cyclopentyl acetate]

Times weaker than MIV-6 in binding to menin (menin protein): 16 times
Structure (SMILES): N#Cc1ccc(N2CC(CN3CCC(C(C#N)(c4ccccc4)C4CCCC4)CC3)C2)cc1 (racemic) [Compound 31, rac-4-(3-((4-(cyano(cyclopentyl)(phenyl)methyl)piperidin-1-yl)methyl)azetidin-1-yl)benzonitrile]
